US11912693B2, “Compounds for modulating S1P1 activity and methods of using the same” (TREVENA, INC., priority 2017, dated 2024)

What was measured:
[1] = target: T1, human sphingosine-1-phosphate receptor 1 (S1P1) (Homo sapiens (Human), UniProt P21453); experiment: Inhibition of cAMP production (HTRF cAMP HiRange), S1P1 CHO-K1 cells; assay type: cell-based; conditions: for Emax: CHO-K1, read-out: hS1P1 cAMP SPAN
Method in brief: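 CHO-K1 cells stably co-expressing human S1P1 (C-terminal Prolink tag) and EA-β-arrestin2 were grown in AssayComplete Media 6 at 37° C. and 5% CO2, plated, and incubated overnight. Agonist-driven inhibition of intracellular cAMP was read by TR-FRET with the HTRF cAMP HiRange kit on a PheraStar reader. Potency is pEC50, and efficacy (SPAN) is normalized to fingolimod.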
Target sequence in this assay (P21453 whole entry, looked up): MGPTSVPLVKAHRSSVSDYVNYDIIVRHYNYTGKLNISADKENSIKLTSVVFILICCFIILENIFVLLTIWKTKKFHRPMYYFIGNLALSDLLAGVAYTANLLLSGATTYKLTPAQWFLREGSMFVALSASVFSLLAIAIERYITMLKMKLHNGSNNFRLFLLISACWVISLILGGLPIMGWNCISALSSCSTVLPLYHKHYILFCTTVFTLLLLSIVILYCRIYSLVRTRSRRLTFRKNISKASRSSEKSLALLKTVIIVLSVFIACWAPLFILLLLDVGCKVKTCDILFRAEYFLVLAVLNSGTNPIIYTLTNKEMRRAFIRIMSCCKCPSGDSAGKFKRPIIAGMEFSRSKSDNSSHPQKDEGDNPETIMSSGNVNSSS

[2] = target: T1, human sphingosine-1-phosphate receptor 1 (S1P1); experiment: β-Arrestin2 recruitment assay (PathHunter), S1P1 CHO-K1 cells; assay type: cell-based; conditions: for Emax: CHO-K1, read-out: hS1P1 B-arrestin2 SPAN
Method in brief: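 Enzyme-fragment complementation read-out: agonist-driven β-arrestin2 binding to ProLink-tagged human S1P1 in stable CHO-K1 cells restores β-galactosidase, measured 1 h at room temperature after a 60 min 37° C. compound incubation. Potency as pEC50, efficacy relative to fingolimod (SPAN).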
Target sequence in this assay (P21453 whole entry, looked up): as above
Target sequence in this assay (P32121 whole entry partner, looked up): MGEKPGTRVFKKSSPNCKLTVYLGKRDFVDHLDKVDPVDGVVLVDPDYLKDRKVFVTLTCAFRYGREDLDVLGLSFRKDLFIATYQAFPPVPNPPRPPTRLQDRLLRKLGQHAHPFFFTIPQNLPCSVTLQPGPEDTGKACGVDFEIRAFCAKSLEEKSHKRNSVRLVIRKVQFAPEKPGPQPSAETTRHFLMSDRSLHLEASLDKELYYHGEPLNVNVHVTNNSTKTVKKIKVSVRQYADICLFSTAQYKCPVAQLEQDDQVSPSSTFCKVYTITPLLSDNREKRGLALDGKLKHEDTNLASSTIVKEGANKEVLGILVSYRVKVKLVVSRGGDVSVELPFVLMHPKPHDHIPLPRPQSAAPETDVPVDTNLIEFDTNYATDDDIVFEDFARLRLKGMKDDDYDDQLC

[3] = efficacy (SPAN) normalized to fingolimod
[4] = inhibition of cAMP production, S1P1 CHO-K1 cells
[5] = β-arrestin2 recruitment, S1P1 CHO-K1 cells

| Compound | hS1P1 cAMP pEC50 [1, 4] | hS1P1 B-arrestin2 pEC50 [2, 5] | further results |
| --- | --- | --- | --- |
| CCC1(CC)CC(=O)c2cc(-c3nc(-c4ccsc4)no3)ccc2N1 [Compound 554, 2,2-diethyl-6-(3-(thiophen-3-yl)-1,2,4-oxadiazol-5-yl)-2,3-dihydroquinolin-4(1H)-one] | >6.5 | >5 | Emax [1, 3]: > 75%; Emax [2, 3]: > 75% |
| CCC1(CC)CC(=O)c2cc(-c3nc(-c4ccnc(C(N)=O)c4)no3)ccc2O1 [Compound 555, 4-(5-(2,2-diethyl-4-oxochroman-6-yl)-1,2,4-oxadiazol-3-yl)picolinamide] | >6.5 | >5 | – |
| CCC1(CC)CC(=O)c2cc(-c3nc(-c4ccnc(NS(C)(=O)=O)c4)no3)ccc2O1 [Compound 556, N-(4-(5-(2,2-diethyl-4-oxochroman-6-yl)-1,2,4-oxadiazol-3-yl)pyridin-2-yl)methanesulfonamide] | >6.5 | >5 | – |
| CCC1(CC)CC(=O)c2cc(-c3nc(-c4cncc(C(F)(F)F)c4)no3)ccc2O1 [Compound 557, 2,2-diethyl-6-(3-(5-(trifluoromethyl)pyridin-3-yl)-1,2,4-oxadiazol-5-yl)chroman-4-one] | <6.5 | >5 | – |
| CCC1(CC)CC(=O)c2cc(-c3noc(-c4cccnc4)n3)ccc2O1 [Compound 559, 2,2-diethyl-6-(5-(pyridin-3-yl)-1,2,4-oxadiazol-3-yl)chroman-4-one] | >6.5 | >5 | – |
| Cc1nc2cc(-c3nnc(-c4ccc(NCC(F)F)c(C#N)c4)o3)ccc2[nH]1 [Compound 561, 2-[(2,2-difluoroethyl)amino]-5-[5-(2-methyl-1H-1,3-benzodiazol-5-yl)-1,3,4-oxadiazol-2-yl]benzonitrile] | >6.5 | >5 | – |
| COc1ccccc1-c1cnc(-c2ccc3c(c2)nnn3C(C)C)nc1 [Compound 565, 1-isopropyl-5-(5-(2-methoxyphenyl)pyrimidin-2-yl)-1H-benzo[d][1,2,3]triazole] | >6.5 | >5 | – |
| COc1ccccc1-c1c[nH]c(-c2ccc3c(c2)nnn3C(C)C)c1 [Compound 566, 5-[4-(2-methoxyphenyl)-1H-pyrrol-2-yl]-1-(propan-2-yl)-1H-1,2,3-benzotriazole] | <6.5 | <5 | – |
| Cn1ccnc1-c1noc(-c2ccc3c(c2)nnn3CC(C)(C)O)n1 [Compound 567, 2-methyl-1-{5-[3-(1-methyl-1H-imidazol-2-yl)-1,2,4-oxadiazol-5-yl]-1H-1,2,3-benzotriazol-1-yl}propan-2-ol] | <6.5 | <5 | – |
| CC(C)n1nnc2cc(-c3nc(-c4nccn4C)no3)ccc21 [Compound 569, 5-[3-(1-methyl-1H-imidazol-2-yl)-1,2,4-oxadiazol-5-yl]-1-(propan-2-yl)-1H-1,2,3-benzotriazole] | <6.5 | <5 | Emax [1, 3]: > 75%; Emax [2, 3]: < 75% |
| CC(C)(O)Cn1nnc2cc(-c3nc(-c4cocn4)no3)ccc21 [Compound 570, 2-methyl-1-{5-[3-(1,3-oxazol-4-yl)-1,2,4-oxadiazol-5-yl]-1H-1,2,3-benzotriazol-1-yl}propan-2-ol] | <6.5 | <5 | Emax [1, 3]: < 75%; Emax [2, 3]: < 75% |
| Cc1nc2cc(-c3nc(-c4ccc5c(c4)nnn5C(C)C)no3)ccc2[nH]1 [Compound 571, 5-[5-(2-methyl-1H-1,3-benzodiazol-5-yl)-1,2,4-oxadiazol-3-yl]-1-(propan-2-yl)-1H-1,2,3-benzotriazole] | >6.5 | >5 | – |
| CC(C)Nc1ccc(-c2nnc(-c3ccc4c(c3)ncn4C)o2)cc1C#N [Compound 572, 5-[5-(1-methyl-1H-1,3-benzodiazol-5-yl)-1,3,4-oxadiazol-2-yl]-2-[(propan-2-yl)amino]benzonitrile] | <6.5 | <5 | – |
| Cn1cnc2cc(-c3nnc(-c4ccc(NCC(F)F)c(C#N)c4)o3)ccc21 [Compound 573, 2-[(2,2-difluoroethyl)amino]-5-[5-(1-methyl-1H-1,3-benzodiazol-5-yl)-1,3,4-oxadiazol-2-yl]benzonitrile] | <6.5 | <5 | – |
| CC(C)Nc1ccc(-c2nnc(-c3ccc4c(c3)ncn4CCO)o2)cc1C#N [Compound 574, 5-{5-[1-(2-hydroxyethyl)-1H-1,3-benzodiazol-5-yl]-1,3,4-oxadiazol-2-yl}-2-[(propan-2-yl)amino]benzonitrile] | <6.5 | <5 | – |
| COc1ccccc1-c1nc(-c2ccc3c(c2)nnn3C(C)C)co1 [Compound 575, 5-[2-(2-methoxyphenyl)-1,3-oxazol-4-yl]-1-(propan-2-yl)-1H-1,2,3-benzotriazole] | >6.5 | >5 | Emax [1, 3]: > 75%; Emax [2, 3]: > 75% |
| CC(C)n1nnc2cc(-c3noc(-c4ccccc4N)n3)ccc21 [Compound 576, 2-{3-[1-(propan-2-yl)-1H-1,2,3-benzotriazol-5-yl]-1,2,4-oxadiazol-5-yl}aniline] | >6.5 | >5 | Emax [1, 3]: > 75%; Emax [2, 3]: < 75% |
| CCOP(=O)(Cc1ccc(-c2noc(-c3ccc4c(c3)nnn4C(C)C)n2)cc1)OCC [Compound 583, diethyl [(4-{5-[1-(propan-2-yl)-1H-1,2,3-benzotriazol-5-yl]-1,2,4-oxadiazol-3-yl}phenyl)methyl]phosphonate] | – | – | hS1P1 cAMP SPAN [1, 3]: <75; hS1P1 B-arrestin2 SPAN [2, 3]: <75 |
| Cc1ccccc1-c1nc(-c2ccc3c(c2)nnn3CC(C)(C)O)no1 [Compound 593, 2-methyl-1-(5-(5-(o-tolyl)-1,2,4-oxadiazol-3-yl)-1H-benzo[d][1,2,3]triazol-1-yl)propan-2-ol] | – | – | Emax [1, 3]: > 75%; EC50 ([1]; inhibition of cAMP production, S1P1 CHO-K1 cells, read-out: hS1P1 cAMP pEC50 (converted)): < 0.316 µM; Emax [2, 3]: > 75%; EC50 ([2]; β-arrestin2 recruitment, S1P1 CHO-K1 cells, read-out: hS1P1 B-arrestin2 pEC50 (converted)): < 10 µM |

Further lines, with some results ahead:

| hS1P1 cAMP pEC50 [1, 4] | hS1P1 B-arrestin2 pEC50 [2, 5] | Compound | further results |
| --- | --- | --- | --- |
| <6.5 | >5 | CC(C)(O)Cn1nnc2cc(-c3nc(-c4cccc5cc[nH]c45)no3)ccc21 [Compound 577, 1-{5-[3-(1H-indol-7-yl)-1,2,4-oxadiazol-5-yl]-1H-1,2,3-benzotriazol-1-yl}-2-methylpropan-2-ol] | Emax [1, 3]: < 75%; Emax [2, 3]: < 75% |
| <6.5 | <5 | N#Cc1cc(-c2nnc(-c3ccc4c(c3)ncn4CCO)o2)ccc1NCC(F)F [Compound 578, 2-[(2,2-difluoroethyl)amino]-5-{5-[1-(2-hydroxyethyl)-1H-1,3-benzodiazol-5-yl]-1,3,4-oxadiazol-2-yl}benzonitrile] | – |
| <6.5 | <5 | COc1cc(NC(C)=O)ccc1-c1nc(-c2ccncc2)no1 [Compound 582, N-{3-methoxy-4-[3-(pyridin-4-yl)-1,2,4-oxadiazol-5-yl]phenyl}acetamide] | – |
| <6.5 | <5 | CNc1ccccc1-c1coc(-c2ccc3c(c2)nnn3C(C)C)n1 [Compound 587, N-methyl-2-{2-[1-(propan-2-yl)-1H-1,2,3-benzotriazol-5-yl]-1,3-oxazol-4-yl}aniline] | Emax [1, 3]: < 75%; Emax [2, 3]: < 75% |
| <6.5 | <5 | CCC1CC(=O)c2ccc(-c3nc(-c4cccnc4)no3)cc2O1 (stereo not shown) [Compound 588, 2-ethyl-7-[3-(pyridin-3-yl)-1,2,4-oxadiazol-5-yl]-3,4-dihydro-2H-1-benzopyran-4-one] | – |
| <6.5 | <5 | CC(C)(O)Cn1nnc2cc(-c3nc(-c4ccc5nonc5c4)no3)ccc21 [Compound 590, 1-{5-[3-(2,1,3-benzoxadiazol-5-yl)-1,2,4-oxadiazol-5-yl]-1H-1,2,3-benzotriazol-1-yl}-2-methylpropan-2-ol] | – |
| >6.5 | >5 | CCC1(CC)CC(=O)c2cc(-c3nc(-c4cccs4)no3)ccc2N1 [Compound 591, 2,2-diethyl-6-(3-(thiophen-2-yl)-1,2,4-oxadiazol-5-yl)-2,3-dihydroquinolin-4(1H)-one] | – |
| >6.5 | >5 | CCC1(CC)CC(=O)c2cc(-c3ncc(-c4ccccc4OC)cn3)ccc2O1 [Compound 594, 2,2-diethyl-6-(5-(2-methoxyphenyl)pyrimidin-2-yl)chroman-4-one] | – |
| >6.5 | >5 | CC(C)Oc1ccc(-c2ncc(-c3ccc4c(c3)nnn4C(C)C)cn2)cc1C#N [Compound 595, 2-isopropoxy-5-(5-(1-isopropyl-1H-benzo[d][1,2,3]triazol-5-yl)pyrimidin-2-yl)benzonitrile] | – |
| >6.5 | >5 | CC(C)Nc1ccc(-c2ncc(-c3ccc4c(c3)nnn4C(C)C)cn2)cc1C#N [Compound 596, 5-(5-(1-isopropyl-1H-benzo[d][1,2,3]triazol-5-yl)pyrimidin-2-yl)-2-(isopropylamino)benzonitrile] | – |
| >6.5 | >5 | Cc1cnccc1-c1noc(-c2ccc3c(c2)nnn3CC(C)(C)O)n1 [Compound 597, 2-methyl-1-{5-[3-(3-methylpyridin-4-yl)-1,2,4-oxadiazol-5-yl]-1H-1,2,3-benzotriazol-1-yl}propan-2-ol] | – |
